“And” between values parts separate entries of the source, which are not always exact repeats. Equal values may be shown once.
Key:
RGK-KO cells = experiment: Proton beam irradiation of RGK-KO cells cultured on ^15N_5-ALA-containing culture medium, surviving fraction by fluorescent protein image and DAPI staining; format: cell-based, rat; settings: ^15N_5-ALA in medium 24 hours before irradiation, charge amount 4.0 nC, 1.3 MeV
Text: The RGK-KO cells and RGM-GFP cells cultured on a culture medium containing ^15N_5-ALA and the RGK-KO cells and RGM-GFP cells cultured on a culture medium not containing ^15N_5-ALA were in each instance held sealed in a vacuum along with the culture medium and were irradiated with a proton beam at a prescribed ion charge amount. With regard to the proton beam energy, considering the attenuation of the proton beam energy by the Torelina film and the culture solution sealed in the vacuum, the sample was irradiated at 1.3 MeV to match the 1.21 MeV resonance energy.
The upper sections show images of RGM-GFP cells made to metabolize a fluorescent protein by genetic recombination; the lower sections each show photographs in which the dead cells are identified by the DAPI staining method, which stains the DNA in the nucleus of dead cells. […]
The photographs in FIG. 20 show the case of a proton beam irradiation amount of charge of 4.0 nC for both cells. Genes for the metabolism of fluorescent protein are also incorporated in the RGK-KO cells, and the cells present a red color when observed with a fluorescence microscope. […]

[1] = system: rat gastric mucosal-derived cancer cells (RGK-KO) versus rat gastric mucosal-derived cells (RGM-GFP); experiment: Cellular intake of ^15N_5-ALA by cancer cells and normal cells, quantitated by 4.43 MeV gamma rays from the ^15N resonance nuclear reaction; format: cell-based; settings: 24 hours after the addition of ^15N_5-ALA; 1 mmol/L in culture medium; RGK-KO vs RGM-GFP
Method: Rat gastric mucosal-derived cells (RGM-GFP) were prepared as normal cells and rat gastric mucosal-derived cancer cells (RGK-KO) were prepared as cancer cells, and the difference in cellular intake of ^15N_5-ALA between the RGM-GFP cells and RGK-KO cells was confirmed as follows. The rat gastric mucosal-derived cells and rat gastric mucosal-derived cancer cells are both derived from the rat and are widely used in research on anticancer agents because they have the same gene sequence (refer to Non-Patent Documents 6 and 7).
The RGM-GFP cells and RGK-KO cells were cultured for 3 or 4 days on a culture solution adapted to each and were grown to 80% confluence; this was followed by the addition of ^15N_5-ALA and the amount of ^15N intake per cell with elapsed time was measured. […] The cells, which had grown with attachment to the bottom of the Petri dish, were detached from the Petri dish by the addition of trypsin, and the concentration of the liberated cells was measured.
The concentration was adjusted, and 10^5 cells/2 μL was dripped onto a crystalline silicon substrate and drying was carried out. […] The 4.43 MeV gamma radiation emitted by this resonance nuclear reaction with ^15N was measured using a Bi4Ge3O12 (BGO) detector. […]
The specific procedure for quantitating the ^15N_5-ALA intake by the RGM-GFP cells and RGK-KO cells was as follows. […]

## [15NH2]CC(=O)CCC(=O)O [^15N_5-ALA, 5-aminolevulinic acid in which the nitrogen is nitrogen-15]
RGK-KO cells
  surviving fraction immediately after (within three hours) proton beam irradiation: 73.5% and 85.5%
[1]
  intake of ^15N_5-ALA by cancer cells relative to the intake by the normal cells: at least 5 times
